Experimental findings from US20170311607A1, “SYNERGISTIC BACILLUS THURINGIENSIS SUBSP. AIZAWAI, BACILLUS THURINGIENSIS SUBSP. KURSTAKI AND FLUBENDIAMIDE MIXTURES FOR DIAMONDBACK MOTH, SUGARCANE BORER, SOYBEAN LOOPER, AND CORN EARWORM” (Valent BioSciences LLC, priority 2016, published 2017) are described below.

Experiment [1] concerns cabbage looper larvae. Put plainly: Leaf dip efficacy and synergy test, cabbage looper larvae. In kind it is in vivo. The note with it: Trichoplusia ni, foliar, Bta/Btk 0.8125 ppm, flubendiamide 0.49 ppm, alone or in mixture. The text has this:
(§1) The following examples were used to determine the synergy of Bacillus thuringiensis subsp. aizawai, Bacillus thuringiensis subsp. kurstaki and flubendiamide when controlling diamondback moth, beet armyworm, sugarcane borer, soybean looper, corn earworm, cabbage looper, and southwestern corn borer. Sympatico™ emulsifiable suspension (available from Valent BioSciences LLC) was used as the source of Bacillus thuringiensis subsp. aizawai and Bacillus thuringiensis kurstaki. Sympatico™ contains about a 1:0.67 ratio of Bacillus thuringiensis subsp. kurstaki fermentation solids, spores and toxins to Bacillus thuringiensis subsp. aizawai fermentation solids, spores and toxins. Belt® was used as the source of flubendiamide. The present invention is not limited to the commercial products used in the examples. In each example below, the studies were conducted as follows.
(§2) For these tests, standardized laboratory leaf dip methods were used to inoculate plant material with treatment(s). Dry, treated leaves were placed into Petri dishes (100×25 mm) containing filter paper wetted with 500 μl of distilled H2O (“dH2O”). Each dish was then infested with between 5 and 10 larvae, dependent on species. Efficacy ratings were taken at specified intervals. Synergy ratings were calculated for each test. […]

Experiment [2] relates to diamondback moth larvae. The experiment can be described thus: Leaf dip efficacy and synergy test, diamondback moth larvae. In kind it is in vivo. The note with it: Plutella xylostella, foliar, Bta/Btk 0.8125 ppm, flubendiamide 0.215 ppm, alone or in mixture.
From the text: as §1, with “In each example below, the studies were conducted as follows.” left out
For these tests, standardized laboratory leaf dip methods were used to inoculate plant material with treatment(s). […] Synergy ratings were calculated for each test. […]
In order to determine synergy, rates below normal field rate ranges must be used. If normal field rate ranges are used, all of the larvae would die (combining a lethal or near lethal dose of Bacillus thuringiensis subsp. aizawai and Bacillus thuringiensis subsp. kurstaki with a lethal dose of flubendiamide would most likely lead to larvae death) in every treatment and synergy would not be able to be determined. […]

Experiment [3] has as its system soybean looper larvae. Put plainly: Leaf dip efficacy and synergy test, soybean looper larvae. In kind it is in vivo, Chrysodeixis includens. The settings on record: foliar, Bta/Btk 0.26 ppm, flubendiamide 3.9 ppm, alone or in mixture.
From the text: as §1, §2

Experiment [4] deals with sugarcane borer larvae. Put plainly: Leaf dip efficacy and synergy test, sugarcane borer larvae. In kind it is in vivo. The settings on record: Diatraea saccharalis, foliar, Bta/Btk 0.8125 ppm, flubendiamide 2.15 ppm, alone or in mixture.
From the text: as §1, §2

Experiment [5] deals with corn earworm larvae. The experiment can be described thus: Leaf dip efficacy and synergy test, corn earworm larvae. The class given is in vivo. The note with it: Helicoverpa zea, foliar, Bta/Btk 2.6 ppm, flubendiamide 0.975 ppm, alone or in mixture.
From the text: as §1, §2

For experiment [6], the system named is beet armyworm larvae. Put plainly: Leaf dip efficacy and synergy test, beet armyworm larvae. The class given is in vivo. The note with it: Spodoptera exigua, foliar, Bta/Btk 0.8125 ppm, flubendiamide 0.49 ppm, alone or in mixture.
From the text: as §1, §2

Experiment [7] has as its system southwestern corn borer larvae. The experiment can be described thus: Leaf dip efficacy and synergy test, southwestern corn borer larvae. The class given is in vivo. The note with it: foliar, Bta/Btk 0.8125 ppm, flubendiamide 0.39 ppm, alone or in mixture.
From the text: as §1, §2

Consider `Cc1cc(C(F)(C(F)(F)F)C(F)(F)F)ccc1NC(=O)c1cccc(I)c1C(=O)NC(C)(C)CS(C)(=O)=O` [Flubendiamide, 3-iodo-N′-(2-mesyl-1,1-dimethylethyl)-N-{4-[1,2,2,2-tetrafluoro-1-(trifluoromethyl)ethyl]-o-tolyl}phthalamide], for which the Emax – broadly, the size of the effect at its maximum, as opposed to the concentration needed – at 0.49 ppm in experiment [1] (24 h after treatment) amounted to 9%; in experiment [1] (48 h after treatment), 65%; in experiment [6] (24 h after treatment), 10%; in experiment [6] (48 h after treatment) it was 23%. In addition, the Emax at 0.215 ppm in experiment [2] (24 h after treatment) came to 4%; in experiment [2] (48 h after treatment), 42%. Besides, the Emax at 3.9 ppm came to 13% in experiment [3] (24 h after treatment) and 38% in experiment [3] (48 h after treatment). For the same compound, the Emax at 2.15 ppm was 24% in experiment [4] (24 h after treatment) and 33% in experiment [4] (48 h after treatment). In addition, the Emax at 0.975 ppm in experiment [5] (24 h after treatment) and in experiment [5] (48 h after treatment) was 33% each time. In addition, the Emax at 0.39 ppm in experiment [7] (24 h after treatment) is 49%; in experiment [7] (48 h after treatment) it was 51%.
